Test results: patent US7470678B2, “Diphenylazetidinone derivatives for treating disorders of the lipid metabolism” (AstraZeneca AB, priority 2002, dated 2008)

How the values were obtained:
[1] = tested on: Caco-2 cells; assay: Absorption in a Caco-2 cells model; assay type: in vitro ADME
Description: (§1) The absorption of the compounds of formula (I) was tested in a Caco-2 cells model (Gastroenterology 1989, 96, 736).

[2] = Absorption in a Caco-2 cells model; assay type: in vitro ADME; conditions: human, read-out: Apparent partition coefficient, Papp
Description: as §1

Row | Apparent partition coefficient; Papp [cm/s] [1] | absorption compared with ezetimibe ([1]; compared with ezetimibe) | Papp [2] | SMILES
1 | 0.24 × 10^−06 cm/s | much lower absorption |  | O=C(O)CNC(=O)COc1ccc(C2C(SCC(O)c3ccc(F)cc3)C(=O)N2c2ccccc2)cc1 [Example 24, 3-(R)-4-(R)-1-(Phenyl)-3-[2-(4-fluorophenyl)-2-hydroxyethylsulphany[-4-{4-[N-(carboxymethyl)carbamoylmethoxy]phenyl}azetidin-2-one]
2 |  |  | 21 ×10⁻⁶ cm/s | O=C1[C@H](CC[C@H](O)c2ccc(F)cc2)[C@@H](c2ccc(O)cc2)N1c1ccc(F)cc1 [Ezetimibe, reference compound]
